Experimental data published in ChEMBL document CHEMBL4813950, “Comparing the efficacy and selectivity of Ck2 inhibitors. A phosphoproteomics approach” (Eur J Med Chem, 2021).

Assays:
[1] = molecular target: UPF0690 protein C1orf52 homolog (Mus musculus) (UniProt Q9CWU4); experiment: Inhibition of UPF0690 protein C1orf52 homolog in mouse C2C12 cells assessed as reduction in phospho-sites occupancy at 4 uM after 5 hrs by SILAC based LC-MS/MS analysis relative to control; assay type: cell-based
[2] = molecular target: Zinc finger and BTB domain-containing protein 7A (Mus musculus) (UniProt O88939); experiment: Inhibition of Zbtb7a in mouse C2C12 cells assessed as reduction in phospho-sites occupancy at 4 uM after 5 hrs by SILAC based LC-MS/MS analysis relative to control; assay type: cell-based
[3] = molecular target: Serine/threonine-protein kinase PAK 1 (Mus musculus) (UniProt O88643); experiment: Inhibition of Pak1 in mouse C2C12 cells assessed as reduction in phospho-sites occupancy at 4 uM after 5 hrs by SILAC based LC-MS/MS analysis relative to control; assay type: cell-based
[4] = molecular target: DNA replication licensing factor MCM2 (Mus musculus) (UniProt P97310); experiment: Inhibition of Mcm2 in mouse C2C12 cells assessed as reduction in phospho-sites occupancy at 4 uM after 5 hrs by SILAC based LC-MS/MS analysis relative to control; assay type: cell-based
[5] = molecular target: Enhancer of mRNA-decapping protein 4 (Mus musculus) (UniProt Q3UJB9); experiment: Inhibition of Edc4 in mouse C2C12 cells assessed as reduction in phospho-sites occupancy at 4 uM after 5 hrs by SILAC based LC-MS/MS analysis relative to control; assay type: cell-based
[6] = molecular target: EH domain-containing protein 2 (Mus musculus) (UniProt Q8BH64); experiment: Inhibition of Ehd2 in mouse C2C12 cells assessed as reduction in phospho-sites occupancy at 4 uM after 5 hrs by SILAC based LC-MS/MS analysis relative to control; assay type: cell-based
[7] = molecular target: Protein transport protein Sec31A (Mus musculus) (UniProt Q3UPL0); experiment: Inhibition of Sec31a in mouse C2C12 cells assessed as reduction in phospho-sites occupancy at 4 uM after 5 hrs by SILAC based LC-MS/MS analysis relative to control; assay type: cell-based
[8] = molecular target: 182 kDa tankyrase-1-binding protein (Mus musculus) (UniProt P58871); experiment: Inhibition of tankyrase-1-binding protein in mouse C2C12 cells assessed as reduction in phospho-sites occupancy at 4 uM after 5 hrs by SILAC based LC-MS/MS analysis relative to control; assay type: cell-based
[9] = molecular target: Unconventional myosin-XVIIIa (Mus musculus) (UniProt Q9JMH9); experiment: Inhibition of Unconventional myosin-18a in mouse C2C12 cells assessed as reduction in phospho-sites occupancy at 4 uM after 5 hrs by SILAC based LC-MS/MS analysis relative to control; assay type: cell-based
[10] = system: Golgi-specific brefeldin A-resistance guanine nucleotide exchange factor 1 (Mus musculus); experiment: Inhibition of Gbf1 in mouse C2C12 cells assessed as reduction in phospho-sites occupancy at 4 uM after 5 hrs by SILAC based LC-MS/MS analysis relative to control

Chain of Protein transport protein Sec31A (Mus musculus) (Q3UPL0 whole entry): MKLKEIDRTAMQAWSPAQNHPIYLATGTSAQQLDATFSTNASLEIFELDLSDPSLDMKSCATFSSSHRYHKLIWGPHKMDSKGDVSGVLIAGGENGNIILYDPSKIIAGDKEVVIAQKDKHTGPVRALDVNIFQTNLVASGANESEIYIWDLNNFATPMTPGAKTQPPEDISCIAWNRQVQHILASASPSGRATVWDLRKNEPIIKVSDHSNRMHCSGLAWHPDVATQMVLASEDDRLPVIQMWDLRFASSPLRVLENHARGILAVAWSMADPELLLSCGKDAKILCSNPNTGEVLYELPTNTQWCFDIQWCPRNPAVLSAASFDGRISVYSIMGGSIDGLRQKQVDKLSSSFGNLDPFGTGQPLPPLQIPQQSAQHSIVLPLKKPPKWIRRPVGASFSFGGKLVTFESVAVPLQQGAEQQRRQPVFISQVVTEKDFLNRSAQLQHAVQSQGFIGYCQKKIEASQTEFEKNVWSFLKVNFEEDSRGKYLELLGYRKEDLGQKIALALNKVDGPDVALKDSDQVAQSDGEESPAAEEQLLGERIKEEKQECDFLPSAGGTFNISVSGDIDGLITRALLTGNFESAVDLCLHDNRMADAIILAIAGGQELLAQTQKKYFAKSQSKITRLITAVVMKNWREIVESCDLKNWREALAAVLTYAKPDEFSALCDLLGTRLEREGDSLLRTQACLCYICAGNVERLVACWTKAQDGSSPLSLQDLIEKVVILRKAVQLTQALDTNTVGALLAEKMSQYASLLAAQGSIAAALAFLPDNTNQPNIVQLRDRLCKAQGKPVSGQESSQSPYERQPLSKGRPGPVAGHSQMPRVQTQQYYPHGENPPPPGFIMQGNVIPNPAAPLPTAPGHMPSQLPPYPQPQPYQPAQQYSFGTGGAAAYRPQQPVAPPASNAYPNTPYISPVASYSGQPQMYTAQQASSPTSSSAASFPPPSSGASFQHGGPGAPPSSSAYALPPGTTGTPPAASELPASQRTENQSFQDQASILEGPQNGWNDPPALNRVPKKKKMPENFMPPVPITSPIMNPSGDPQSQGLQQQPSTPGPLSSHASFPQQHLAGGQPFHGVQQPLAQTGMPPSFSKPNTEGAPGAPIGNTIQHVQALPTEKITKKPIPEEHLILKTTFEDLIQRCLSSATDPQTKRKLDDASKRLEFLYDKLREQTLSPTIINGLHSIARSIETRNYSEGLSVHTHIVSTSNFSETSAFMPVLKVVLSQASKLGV
Chain of Zinc finger and BTB domain-containing protein 7A (Mus musculus) (O88939 whole entry, the tested form may be a part): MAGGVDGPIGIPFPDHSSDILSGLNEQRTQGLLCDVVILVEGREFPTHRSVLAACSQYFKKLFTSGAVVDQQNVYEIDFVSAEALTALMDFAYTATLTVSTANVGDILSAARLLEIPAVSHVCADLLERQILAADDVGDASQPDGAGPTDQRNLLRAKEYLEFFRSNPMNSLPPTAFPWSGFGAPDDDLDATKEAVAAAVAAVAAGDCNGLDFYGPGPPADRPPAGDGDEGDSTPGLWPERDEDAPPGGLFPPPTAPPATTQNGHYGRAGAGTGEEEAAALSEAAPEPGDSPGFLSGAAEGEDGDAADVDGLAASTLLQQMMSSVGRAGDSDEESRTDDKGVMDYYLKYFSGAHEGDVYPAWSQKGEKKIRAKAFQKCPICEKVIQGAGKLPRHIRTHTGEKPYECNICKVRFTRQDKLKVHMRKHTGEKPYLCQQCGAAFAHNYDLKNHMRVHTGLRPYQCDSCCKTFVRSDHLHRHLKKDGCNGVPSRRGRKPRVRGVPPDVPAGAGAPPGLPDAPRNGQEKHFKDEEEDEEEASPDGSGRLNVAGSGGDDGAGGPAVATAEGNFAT
Chain of EH domain-containing protein 2 (Mus musculus) (Q8BH64 whole entry, the tested form may be a part): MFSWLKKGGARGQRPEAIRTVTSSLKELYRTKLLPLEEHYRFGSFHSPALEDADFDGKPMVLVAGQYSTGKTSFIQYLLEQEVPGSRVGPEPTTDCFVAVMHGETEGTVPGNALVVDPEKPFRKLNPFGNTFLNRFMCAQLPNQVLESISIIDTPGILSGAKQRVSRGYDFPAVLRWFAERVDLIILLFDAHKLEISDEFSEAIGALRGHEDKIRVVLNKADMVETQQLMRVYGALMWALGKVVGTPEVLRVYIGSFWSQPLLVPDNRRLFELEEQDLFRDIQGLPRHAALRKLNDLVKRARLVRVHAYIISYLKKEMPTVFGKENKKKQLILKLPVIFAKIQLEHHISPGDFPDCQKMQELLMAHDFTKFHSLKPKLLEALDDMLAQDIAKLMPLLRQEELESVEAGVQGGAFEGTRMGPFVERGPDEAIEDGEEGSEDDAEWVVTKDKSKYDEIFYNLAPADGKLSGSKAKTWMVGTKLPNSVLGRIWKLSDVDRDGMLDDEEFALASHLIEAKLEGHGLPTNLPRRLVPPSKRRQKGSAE
Chain of Serine/threonine-protein kinase PAK 1 (Mus musculus) (O88643 whole entry): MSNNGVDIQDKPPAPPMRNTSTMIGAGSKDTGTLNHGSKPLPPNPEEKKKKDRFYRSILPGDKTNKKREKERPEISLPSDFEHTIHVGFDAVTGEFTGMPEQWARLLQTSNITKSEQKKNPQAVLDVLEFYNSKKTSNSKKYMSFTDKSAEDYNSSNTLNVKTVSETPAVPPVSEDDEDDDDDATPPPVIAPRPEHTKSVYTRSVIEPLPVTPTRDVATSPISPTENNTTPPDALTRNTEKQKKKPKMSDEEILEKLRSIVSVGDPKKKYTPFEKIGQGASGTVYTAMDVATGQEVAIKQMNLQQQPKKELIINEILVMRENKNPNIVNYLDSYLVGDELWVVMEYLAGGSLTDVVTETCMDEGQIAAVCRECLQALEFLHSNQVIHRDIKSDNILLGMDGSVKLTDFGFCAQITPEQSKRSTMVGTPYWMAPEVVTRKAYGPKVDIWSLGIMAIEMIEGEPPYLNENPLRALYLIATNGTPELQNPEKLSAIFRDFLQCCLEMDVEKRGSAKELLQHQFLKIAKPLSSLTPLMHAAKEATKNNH
Chain of UPF0690 protein C1orf52 homolog (Mus musculus) (Q9CWU4 whole entry, the tested form may be a part): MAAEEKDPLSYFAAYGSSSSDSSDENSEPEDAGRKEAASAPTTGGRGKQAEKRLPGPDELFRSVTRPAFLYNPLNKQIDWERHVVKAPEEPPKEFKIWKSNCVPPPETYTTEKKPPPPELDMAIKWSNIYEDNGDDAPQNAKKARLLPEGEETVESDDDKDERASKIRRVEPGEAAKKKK
Chain of 182 kDa tankyrase-1-binding protein (Mus musculus) (P58871 whole entry): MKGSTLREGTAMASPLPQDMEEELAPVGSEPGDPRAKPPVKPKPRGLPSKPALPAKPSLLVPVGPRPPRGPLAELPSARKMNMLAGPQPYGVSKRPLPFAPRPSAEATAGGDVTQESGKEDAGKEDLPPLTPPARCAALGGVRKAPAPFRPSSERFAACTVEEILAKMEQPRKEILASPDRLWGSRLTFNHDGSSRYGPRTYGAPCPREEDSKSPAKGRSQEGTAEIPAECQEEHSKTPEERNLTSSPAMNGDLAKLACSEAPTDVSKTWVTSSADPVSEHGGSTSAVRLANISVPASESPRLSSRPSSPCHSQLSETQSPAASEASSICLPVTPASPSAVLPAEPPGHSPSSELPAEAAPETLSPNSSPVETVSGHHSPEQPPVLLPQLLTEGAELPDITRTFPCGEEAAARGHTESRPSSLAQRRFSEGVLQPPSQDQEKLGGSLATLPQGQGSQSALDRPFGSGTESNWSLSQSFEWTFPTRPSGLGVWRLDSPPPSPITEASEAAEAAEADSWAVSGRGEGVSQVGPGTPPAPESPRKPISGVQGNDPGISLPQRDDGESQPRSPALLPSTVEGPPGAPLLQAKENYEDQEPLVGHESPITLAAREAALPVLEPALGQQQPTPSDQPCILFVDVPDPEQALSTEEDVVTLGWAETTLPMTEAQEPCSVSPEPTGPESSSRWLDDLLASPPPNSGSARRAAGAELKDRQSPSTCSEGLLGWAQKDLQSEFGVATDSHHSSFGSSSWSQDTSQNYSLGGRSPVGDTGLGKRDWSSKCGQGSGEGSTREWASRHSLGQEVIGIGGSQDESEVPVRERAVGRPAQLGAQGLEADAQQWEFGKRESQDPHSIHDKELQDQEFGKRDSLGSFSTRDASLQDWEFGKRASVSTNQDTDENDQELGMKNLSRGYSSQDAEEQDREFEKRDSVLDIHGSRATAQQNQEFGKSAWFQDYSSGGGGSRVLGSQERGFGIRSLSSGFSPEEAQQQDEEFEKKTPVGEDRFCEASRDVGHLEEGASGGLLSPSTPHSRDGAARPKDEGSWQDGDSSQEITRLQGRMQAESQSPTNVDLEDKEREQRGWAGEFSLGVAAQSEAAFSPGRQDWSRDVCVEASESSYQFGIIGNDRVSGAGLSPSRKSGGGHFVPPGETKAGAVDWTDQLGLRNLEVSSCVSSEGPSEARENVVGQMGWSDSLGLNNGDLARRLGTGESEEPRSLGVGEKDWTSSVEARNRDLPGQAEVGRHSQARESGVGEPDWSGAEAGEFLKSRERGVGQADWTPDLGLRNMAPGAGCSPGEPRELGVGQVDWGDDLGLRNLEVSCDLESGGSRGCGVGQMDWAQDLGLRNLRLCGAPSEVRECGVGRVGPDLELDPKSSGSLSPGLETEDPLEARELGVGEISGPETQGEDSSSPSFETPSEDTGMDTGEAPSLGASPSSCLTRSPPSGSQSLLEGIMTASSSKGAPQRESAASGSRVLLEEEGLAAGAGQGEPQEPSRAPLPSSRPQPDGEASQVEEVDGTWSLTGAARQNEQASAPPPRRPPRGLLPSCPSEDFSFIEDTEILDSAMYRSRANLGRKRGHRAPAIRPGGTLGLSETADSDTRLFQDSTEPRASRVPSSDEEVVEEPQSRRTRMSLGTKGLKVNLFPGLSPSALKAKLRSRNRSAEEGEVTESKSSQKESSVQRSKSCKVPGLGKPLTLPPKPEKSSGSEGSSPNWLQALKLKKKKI

- fold change (FC) [1]: 1.61
- fold change (FC) [2]: 1.89
- fold change (FC) [3]: 1.96
- fold change (FC) [4]: 2.12
- fold change (FC) [5]: 2.17
- fold change (FC) [6]: 2.18
- fold change (FC) [7]: 2.98
- fold change (FC) [8]: 3.06
- fold change (FC) [9]: 5.23
- fold change (FC) [10]: 2.55
SMILES: COc1cc(/C=N/n2c(SC)nnc2-c2ccccc2)c(Br)cc1O
